Laboratory results as given in US8519173B2, “Plant growth regulator” (Shiseido Company, Ltd., priority 2009, dated 2013).

Legend:
[1] = Stability on standing at room temperature; format: physicochemical; settings: allowed to stand at room temperature
[2] = tested on: morning glory (variety: Murasaki); experiment: Bud formation promotion activity on morning glory; format: in vivo; settings: sprayed at 100 μM; treatment in dark 14 h or 15 h; buds measured on day 14 under continuous light at 25° C.; N=8 plants; compared with water (FIG. 1)
Method: 9 g of morning glory (variety: Murasaki) seeds were treated with concentrated sulfuric acid for 20 minutes followed by allowing to stand overnight in running water. Next, the seeds were allowed to take root by allowing to stand for 24 hours on wet sea sand with the omphalos portion of the seed facing upward. The seeds that had taken root were planted to a depth of about 1.5 cm to 2.0 cm in sea sand and cultured under continuous light (for about 5 days).
All of the morning glory plants that foliated as a result of this culturing were transferred to a culture broth (containing KNO3 (250 mg), NH4NO3 (250 mg), KH2PO4 (250 mg), MgSO4.7H2O (250 mg), MnSO4.4H2O (1 mg), Fe-citrate-n-hydrate (6 mg), H3BO3 (2 mg), CuSO4.5H2O (0.1 mg), ZeSO4.7H2O (0.2 mg), Na2MoO4.2H2O (0.2 mg) and Ca(H2PO4)2.2H2O (250 mg) in 1000 mL of distilled water).
0.10 μM and 100 μM aqueous solutions of the present ketol fatty acid derivative obtained in the aforementioned Example 1 were sprayed onto this culture system and subjected to treatment in dark for 14 hours or 15 hours. Following this treatment in dark, water or the present ketol fatty acid derivative was sprayed again followed by growing the plants under continuous light for 14 days at 25° C. and measuring the buds that formed on day 14. […]

| stability (loss of activity) [1] | Compound | increase in number of buds that formed [2] |
| --- | --- | --- |
| losing activity in a few days | CC/C=C\C/C=C\CC(=O)C(O)CCCCCCCC(=O)O (stereo not drawn) [α-ketol unsaturated fatty acid] | – |
| – | CC/C=C\CC1CC1CC(=O)C(O)CCCCCCCC(=O)O (centres unmarked) | more than 200% |
